Results as given in PubChem BioAssay AID1963437 (Molecular Pharmacology Branch, DTP, NCI, 2024).

Tested on: OVCAR-8 complex spheroid, growth inhibition
Experiment: Anticancer human tumor OVCAR-8 cell line growth inhibition [Asc];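 also: spheroids exposed to agents for 7 days before readout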;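 as to viability, T/C: percent viability relative to DMSO vehicle wells taken as 100%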
Details: for IC50: curve of first compound; for viability, T/C: stronger effect = lower value; active = viability on the fitted dose curve at most 10% of control; inactive = the rest
Procedure, shortened: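 Tumor cells were grown as complex spheroids with human endothelial cells (HUVEC) and human mesenchymal stem cells as stroma. Agents were tested alone and in combination, in half-log steps down from the clinical Cmax, or from 10 microM where Cmax was unknown.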

C=C(F)C(=O)N1CCN(c2nc(OCC3CCCN3C)nc3c2CCN(c2cccc4cccc(Cl)c24)C3)CC1CC#N (configuration not stated) + Cc1c(S(C)(=O)=O)c(-c2cc(F)cc(N3CCN(c4ccc(NS(=O)(=O)c5ccc(NC(CCN6CCC(C(=O)OCCCP(=O)(O)O)CC6)CSc6ccccc6)c(S(=O)(=O)C(F)(F)F)c5)cc4)CC3)c2)c(-c2ccc(Cl)cc2)n1C(C)C
active: viability, T/C (second compound 0.0316 µM, first compound 10 µM) 2.02% | viability, T/C (second compound 0.1 µM, first compound 10 µM) 0.39% | viability, T/C (second compound 0.316 µM, first compound 10 µM) 0.28% | viability, T/C (second compound 1 µM, first compound 10 µM) 1.17% | viability, T/C (second compound 3.16 µM, first compound 10 µM) 0.35% | viability, T/C (second compound 10 µM, first compound 10 µM) 1.06%
2330 nM: IC50 (second compound 0.0316 µM)
2150 nM: IC50 (second compound 10 µM)
2250 nM: IC50 (second compound 3.16 µM)
inactive: viability, T/C (second compound 0.0316 µM, first compound 0.0316 µM) 102% | viability, T/C (second compound 0.0316 µM, first compound 0.1 µM) 92.4% | viability, T/C (second compound 0.0316 µM, first compound 0.316 µM) 91.8% | viability, T/C (second compound 0.0316 µM, first compound 1 µM) 102% | viability, T/C (second compound 0.0316 µM, first compound 3.16 µM) 33% | viability, T/C (second compound 0.1 µM, first compound 0.0316 µM) 95.6% | viability, T/C (second compound 0.1 µM, first compound 0.1 µM) 94.3% | viability, T/C (second compound 0.1 µM, first compound 0.316 µM) 97.7% | viability, T/C (second compound 0.1 µM, first compound 1 µM) 111% | viability, T/C (second compound 0.1 µM, first compound 3.16 µM) 28.5% | viability, T/C (second compound 0.316 µM, first compound 0.0316 µM) 90.3% | viability, T/C (second compound 0.316 µM, first compound 0.1 µM) 99.5% | viability, T/C (second compound 0.316 µM, first compound 0.316 µM) 98.7% | viability, T/C (second compound 0.316 µM, first compound 1 µM) 113% | viability, T/C (second compound 0.316 µM, first compound 3.16 µM) 31.5% | viability, T/C (second compound 1 µM, first compound 0.0316 µM) 92.1% | viability, T/C (second compound 1 µM, first compound 0.1 µM) 88.2% | viability, T/C (second compound 1 µM, first compound 0.316 µM) 96% | viability, T/C (second compound 1 µM, first compound 1 µM) 114% | viability, T/C (second compound 1 µM, first compound 3.16 µM) 38.1% | viability, T/C (second compound 3.16 µM, first compound 0.0316 µM) 102% | viability, T/C (second compound 3.16 µM, first compound 0.1 µM) 111% | viability, T/C (second compound 3.16 µM, first compound 0.316 µM) 93.2% | viability, T/C (second compound 3.16 µM, first compound 1 µM) 128% | viability, T/C (second compound 3.16 µM, first compound 3.16 µM) 25.5% | viability, T/C (second compound 10 µM, first compound 0.0316 µM) 96.4% | viability, T/C (second compound 10 µM, first compound 0.1 µM) 73.3% | viability, T/C (second compound 10 µM, first compound 0.316 µM) 92.4% | viability, T/C (second compound 10 µM, first compound 1 µM) 121% | viability, T/C (second compound 10 µM, first compound 3.16 µM) 26.9%
2320 nM: IC50 (second compound 0.316 µM)
2510 nM: IC50 (second compound 1 µM)
2240 nM: IC50 (second compound 0.1 µM)
